The source made the active and inactive calls. The calls are words filed in the database; no cut-off is given here.
Columns and labels:
DNA topoisomerase 2-beta = DNA topoisomerase 2-beta (Homo sapiens, UniProt Q02880); assay: Inhibition of human DNA topoisomerase 2 beta assessed as relaxation of supercoiled plasmid pBR322 DNA incubated for 30 mins by ethidium bromide staining based agarose gel electrophoresis
[1] = target: T1, DNA topoisomerase 2-alpha (Homo sapiens, UniProt P11388); assay: Inhibition of human DNA topoisomerase 2 alpha assessed as relaxation of supercoiled plasmid pNO1 DNA incubated for 30 mins by fluorescence based analysis
T1 sequence (P11388 whole entry): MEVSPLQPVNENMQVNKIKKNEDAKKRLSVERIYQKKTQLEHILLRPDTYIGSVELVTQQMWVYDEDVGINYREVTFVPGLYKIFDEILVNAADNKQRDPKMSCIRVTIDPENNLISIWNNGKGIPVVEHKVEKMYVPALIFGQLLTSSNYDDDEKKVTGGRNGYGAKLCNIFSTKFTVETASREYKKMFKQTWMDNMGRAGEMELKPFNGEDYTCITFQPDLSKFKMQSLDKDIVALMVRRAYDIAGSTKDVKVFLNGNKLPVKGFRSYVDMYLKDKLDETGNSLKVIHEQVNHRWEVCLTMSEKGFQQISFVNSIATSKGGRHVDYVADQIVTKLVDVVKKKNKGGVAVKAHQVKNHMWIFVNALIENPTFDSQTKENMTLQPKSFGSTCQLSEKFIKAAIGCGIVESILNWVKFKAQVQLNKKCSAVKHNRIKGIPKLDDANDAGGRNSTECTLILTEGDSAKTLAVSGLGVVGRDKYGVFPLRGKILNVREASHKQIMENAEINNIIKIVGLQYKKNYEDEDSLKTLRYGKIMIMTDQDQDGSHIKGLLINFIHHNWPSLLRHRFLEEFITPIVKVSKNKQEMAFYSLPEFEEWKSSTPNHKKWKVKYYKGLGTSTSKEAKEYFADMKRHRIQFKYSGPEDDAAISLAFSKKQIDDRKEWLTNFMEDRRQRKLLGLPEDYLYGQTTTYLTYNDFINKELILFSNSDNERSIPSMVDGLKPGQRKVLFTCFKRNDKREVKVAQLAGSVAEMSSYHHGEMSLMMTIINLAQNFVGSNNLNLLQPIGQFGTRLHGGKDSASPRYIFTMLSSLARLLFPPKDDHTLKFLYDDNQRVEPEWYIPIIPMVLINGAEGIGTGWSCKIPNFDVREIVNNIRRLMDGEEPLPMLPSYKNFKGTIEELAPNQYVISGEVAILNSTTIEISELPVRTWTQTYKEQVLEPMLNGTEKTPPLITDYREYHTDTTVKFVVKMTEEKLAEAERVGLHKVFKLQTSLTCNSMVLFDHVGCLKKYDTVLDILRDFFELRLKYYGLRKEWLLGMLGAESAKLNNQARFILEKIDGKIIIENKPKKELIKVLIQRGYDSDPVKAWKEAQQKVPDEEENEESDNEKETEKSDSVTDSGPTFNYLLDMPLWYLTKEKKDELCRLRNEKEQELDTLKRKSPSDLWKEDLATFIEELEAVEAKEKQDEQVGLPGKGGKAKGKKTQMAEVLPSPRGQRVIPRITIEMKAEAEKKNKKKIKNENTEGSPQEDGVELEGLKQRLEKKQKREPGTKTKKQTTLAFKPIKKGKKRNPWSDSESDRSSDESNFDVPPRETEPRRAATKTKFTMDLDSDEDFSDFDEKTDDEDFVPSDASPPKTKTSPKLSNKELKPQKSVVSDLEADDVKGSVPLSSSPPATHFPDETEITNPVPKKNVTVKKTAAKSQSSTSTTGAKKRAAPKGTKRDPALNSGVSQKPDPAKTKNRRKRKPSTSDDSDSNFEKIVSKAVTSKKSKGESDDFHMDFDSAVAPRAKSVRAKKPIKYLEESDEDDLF

DNA topoisomerase 1 = target: T2, DNA topoisomerase 1 (Homo sapiens, UniProt P11387); assay: Inhibition of human DNA Topoisomerase 1 assessed as relaxation of supercoiled plasmid pBR322 DNA incubated for 30 mins by ethidium bromide staining based agarose gel electrophoresis
T2 sequence (P11387 whole entry): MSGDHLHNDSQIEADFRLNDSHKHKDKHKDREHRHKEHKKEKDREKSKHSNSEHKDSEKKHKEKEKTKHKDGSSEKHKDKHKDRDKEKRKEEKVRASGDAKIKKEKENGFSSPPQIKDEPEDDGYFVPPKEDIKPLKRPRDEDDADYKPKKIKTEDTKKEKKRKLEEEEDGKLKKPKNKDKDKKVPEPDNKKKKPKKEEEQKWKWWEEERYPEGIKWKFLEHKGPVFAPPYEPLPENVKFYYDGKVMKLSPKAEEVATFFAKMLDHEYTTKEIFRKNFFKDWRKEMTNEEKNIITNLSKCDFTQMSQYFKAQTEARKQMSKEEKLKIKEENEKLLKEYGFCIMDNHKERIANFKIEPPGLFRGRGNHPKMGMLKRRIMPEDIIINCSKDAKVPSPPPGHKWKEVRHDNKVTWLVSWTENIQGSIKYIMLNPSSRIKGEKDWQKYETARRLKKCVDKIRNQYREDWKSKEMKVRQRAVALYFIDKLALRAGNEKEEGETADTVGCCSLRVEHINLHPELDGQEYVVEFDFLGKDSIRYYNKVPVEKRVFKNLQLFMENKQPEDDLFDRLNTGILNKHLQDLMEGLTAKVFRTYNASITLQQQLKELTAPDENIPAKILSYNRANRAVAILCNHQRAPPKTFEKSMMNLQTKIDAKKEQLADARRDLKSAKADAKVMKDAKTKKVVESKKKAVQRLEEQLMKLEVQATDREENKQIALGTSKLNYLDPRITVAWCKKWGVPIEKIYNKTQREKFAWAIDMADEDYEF

[2] = Metabolic stability in rat liver S9 fraction assessed as half life at 100 uM measured upto 120 mins in presence of NADPH by HPLC analysis; assay type: ADME, subcellular
[3] = Thermodynamic aqueous solubility of compound in PBS buffer at pH 7.4 at 25 degreeC measured after 24 hrs by UPLC analysis; assay type: physicochemical; settings: read-out: Therm_solubility
K562 = assay: Cytotoxicity against human K562 cells assessed as reduction in cell viability at 10 uM by MTT assay; assay type: functional, cell-based
CCRF-CEM = assay: Cytotoxicity against human CCRF-CEM cells assessed as reduction in cell viability at 10 uM by MTT assay; assay type: functional, cell-based
SW-620 = assay: Cytotoxicity against human SW620 cells assessed as reduction in cell viability at 10 uM by MTT assay; assay type: functional, cell-based
HCC 2998 = assay: Cytotoxicity against human HCC 2998 cells assessed as reduction in cell viability at 10 uM by MTT assay; assay type: functional, cell-based
KM12 = assay: Cytotoxicity against human KM12 cells assessed as reduction in cell viability at 10 uM by MTT assay; assay type: functional, cell-based
HCT-116 = assay: Cytotoxicity against human HCT-116 cells assessed as reduction in cell viability at 10 uM by MTT assay; assay type: functional, cell-based
HT-29 = assay: Cytotoxicity against human HT-29 cells assessed as reduction in cell viability at 10 uM by MTT assay; assay type: functional, cell-based
[4] = target: T1, DNA topoisomerase 2-alpha; assay: Inhibition of human DNA topoisomerase 2 alpha assessed as ATP hydrolysis measured for 30 mins by absorbance based assay
HCT-15 = assay: Cytotoxicity against human HCT-15 cells assessed as reduction in cell viability at 10 uM by MTT assay; assay type: functional, cell-based
MOLT-4 = assay: Cytotoxicity against human MOLT-4 cells assessed as reduction in cell viability at 10 uM by MTT assay; assay type: functional, cell-based
HL-60 = assay: Cytotoxicity against human HL-60 cells assessed as reduction in cell viability at 10 uM by MTT assay; assay type: functional, cell-based
COLO 205 = assay: Cytotoxicity against human COLO 205 cells assessed as reduction in cell viability at 10 uM by MTT assay; assay type: functional, cell-based
SR = assay: Cytotoxicity against human SR cells assessed as reduction in cell viability at 10 uM by MTT assay; assay type: functional, cell-based

Chain of DNA topoisomerase 2-beta (Q02880 whole entry): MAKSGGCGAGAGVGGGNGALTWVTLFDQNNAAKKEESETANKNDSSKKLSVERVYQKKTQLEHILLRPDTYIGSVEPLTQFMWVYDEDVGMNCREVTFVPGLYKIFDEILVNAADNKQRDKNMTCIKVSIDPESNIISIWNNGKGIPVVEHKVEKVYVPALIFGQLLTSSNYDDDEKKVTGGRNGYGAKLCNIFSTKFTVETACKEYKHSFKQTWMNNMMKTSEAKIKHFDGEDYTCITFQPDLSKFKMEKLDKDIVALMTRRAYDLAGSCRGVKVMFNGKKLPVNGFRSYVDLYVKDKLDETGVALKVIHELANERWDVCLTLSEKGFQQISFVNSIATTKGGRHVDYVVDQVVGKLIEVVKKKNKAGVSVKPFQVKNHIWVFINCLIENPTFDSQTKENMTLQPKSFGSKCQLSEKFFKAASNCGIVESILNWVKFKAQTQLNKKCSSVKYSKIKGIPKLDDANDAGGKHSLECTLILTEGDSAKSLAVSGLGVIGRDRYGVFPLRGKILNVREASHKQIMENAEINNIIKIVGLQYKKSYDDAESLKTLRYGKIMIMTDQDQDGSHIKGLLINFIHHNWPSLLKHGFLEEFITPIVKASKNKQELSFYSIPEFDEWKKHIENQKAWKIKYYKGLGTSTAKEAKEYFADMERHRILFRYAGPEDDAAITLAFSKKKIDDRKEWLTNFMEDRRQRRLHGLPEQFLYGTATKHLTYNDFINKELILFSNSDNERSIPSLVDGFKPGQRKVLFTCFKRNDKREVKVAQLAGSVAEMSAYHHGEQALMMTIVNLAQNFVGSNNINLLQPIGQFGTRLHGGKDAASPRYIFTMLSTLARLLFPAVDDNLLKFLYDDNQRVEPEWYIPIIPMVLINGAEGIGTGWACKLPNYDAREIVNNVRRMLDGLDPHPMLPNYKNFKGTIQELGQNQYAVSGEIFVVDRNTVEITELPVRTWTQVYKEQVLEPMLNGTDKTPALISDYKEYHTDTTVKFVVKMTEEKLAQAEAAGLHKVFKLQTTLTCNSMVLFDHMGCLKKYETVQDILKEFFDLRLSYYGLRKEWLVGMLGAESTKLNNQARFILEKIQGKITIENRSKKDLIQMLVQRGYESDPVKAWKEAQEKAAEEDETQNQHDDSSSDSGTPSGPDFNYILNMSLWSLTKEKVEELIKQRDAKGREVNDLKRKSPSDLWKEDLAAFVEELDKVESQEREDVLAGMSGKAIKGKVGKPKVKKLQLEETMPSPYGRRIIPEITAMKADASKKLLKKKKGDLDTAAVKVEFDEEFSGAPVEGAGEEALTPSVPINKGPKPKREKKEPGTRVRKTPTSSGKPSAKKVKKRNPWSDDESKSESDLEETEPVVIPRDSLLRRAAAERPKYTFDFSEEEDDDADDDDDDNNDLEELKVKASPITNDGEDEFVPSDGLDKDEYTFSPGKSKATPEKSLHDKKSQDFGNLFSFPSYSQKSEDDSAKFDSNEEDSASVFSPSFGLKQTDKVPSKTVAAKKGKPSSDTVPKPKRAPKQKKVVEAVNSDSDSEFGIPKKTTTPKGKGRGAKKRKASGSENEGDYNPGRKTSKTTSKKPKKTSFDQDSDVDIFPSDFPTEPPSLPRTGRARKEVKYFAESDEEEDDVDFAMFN

IC50 (DNA topoisomerase 2-beta) [nM] | IC50 [1] [µM] | IC50 (DNA topoisomerase 1) [µM] | half-life at 100 µM [2] [min] | solubility thermodynamic at 24 h [3] [µM] | IC50 [4] [nM] | SMILES | Activity (K562) | Activity (CCRF-CEM) | Activity (SW-620) | Activity (HCC 2998) | Activity (KM12) | Activity (HCT-116) | Activity (HT-29) | Activity (HCT-15) | Activity (MOLT-4) | Activity (HL-60) | Activity (COLO 205) | Activity (SR)
550 | 0.67 | > 5 | 100 | 9.2 |  | Cc1[nH]c(C(=O)Nc2ccc(C(N)=O)cc2OCc2ccc(C(=O)NCCN)cc2)c(Cl)c1Cl.Cl.Cl |  |  |  |  |  |  |  |  |  |  |  | 
 | 6 |  | > 300 | 16 | 2800 | Cc1[nH]c(C(=O)Nc2ccc(C(=O)NCCN)cc2OC(C)C)c(Cl)c1Cl.Cl | Active | Active | Active | Active | Active | Active | Active | Active | Active | Active | Active | Active
